For one compound, IC50 results are on record in BindingDB's records for doi:10.1021/jm00365a017 (1983).

The assay concerns the target Delta-type opioid receptor (Mus musculus) (UniProt P32300). The experiment in a line: Ability to induce 50% of maximal effect in mouse vas deferens expressing Opioid receptor delta 1.

Chain of Delta-type opioid receptor (Mus musculus) (P32300 whole entry, looked up): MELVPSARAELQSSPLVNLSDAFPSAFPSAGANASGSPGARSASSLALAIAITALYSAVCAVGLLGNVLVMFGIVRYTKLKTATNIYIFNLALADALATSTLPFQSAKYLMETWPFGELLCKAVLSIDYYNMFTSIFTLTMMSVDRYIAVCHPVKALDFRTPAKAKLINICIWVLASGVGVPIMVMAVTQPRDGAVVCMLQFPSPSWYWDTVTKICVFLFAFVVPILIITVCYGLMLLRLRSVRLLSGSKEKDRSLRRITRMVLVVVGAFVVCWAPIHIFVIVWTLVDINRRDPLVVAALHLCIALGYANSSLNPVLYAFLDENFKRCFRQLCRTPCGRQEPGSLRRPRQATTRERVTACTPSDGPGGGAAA

As usually defined, the IC50 is the midpoint of a concentration-inhibition curve. For the compound `CC1C2Cc3ccc(O)cc3C1(C)CCN2CCc1ccccc1` (stereo unspecified), the IC50 was 8 nM.
